Measurements as given in ChEMBL document CHEMBL1268993, “Tri- and tetrasubstituted imidazoles as p38α mitogen-activated protein kinase inhibitors” (Bioorg Med Chem Lett, 2010).

The compounds below were run against Mitogen-activated protein kinase 14 (Homo sapiens, UniProt Q16539) (assay: Inhibition of p38alpha by immunosorbent based assay).
Mitogen-activated protein kinase 14, sequence (Q16539 whole entry): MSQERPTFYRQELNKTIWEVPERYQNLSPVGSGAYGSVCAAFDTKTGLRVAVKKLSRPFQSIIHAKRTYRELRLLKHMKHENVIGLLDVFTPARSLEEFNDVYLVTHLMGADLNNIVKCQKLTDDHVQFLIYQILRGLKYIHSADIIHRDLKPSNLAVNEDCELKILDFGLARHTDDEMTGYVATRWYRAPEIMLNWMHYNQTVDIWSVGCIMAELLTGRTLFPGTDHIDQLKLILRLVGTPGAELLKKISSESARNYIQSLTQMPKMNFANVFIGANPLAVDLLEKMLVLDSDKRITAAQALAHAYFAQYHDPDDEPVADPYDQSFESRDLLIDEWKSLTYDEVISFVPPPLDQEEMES

Point of comparison: CSc1nc(-c2ccc(F)cc2)c(-c2ccnc(NC(=O)/C(F)=C/c3ccccc3)c2)[nH]1, IC50 27 nM. Against it:
- CCC(=O)Nc1cc(-c2c(-c3ccc(F)cc3)nc(SC)n2CCOC)ccn1 — 6.7-fold higher, 180 nM
- CSc1nc(-c2ccc(F)cc2)c(-c2ccnc(NC(C)=O)c2)n1CCC(=O)N1CCCCC1 — 83-fold higher, 2240 nM
- CSc1nc(-c2ccc(F)cc2)c(-c2ccnc(NC(C)=O)c2)n1CCC(=O)N1CCOCC1 — 58-fold higher, 1570 nM
- CSc1nc(-c2ccc(F)cc2)c(-c2ccnc(NC(=O)/C=C/c3c(Cl)cccc3Cl)c2)[nH]1 — 9-fold lower, 3 nM
- CCN(CC)C(=O)Cn1c(SC)nc(-c2ccc(F)cc2)c1-c1ccnc(NC(C)=O)c1 — 2.2-fold higher, 60 nM
- CSc1nc(-c2ccc(F)cc2)c(-c2ccnc(NC(C)=O)c2)n1CC(=O)N1CCOCC1 — 10-fold higher, 280 nM
- CSc1nc(-c2ccnc(NC(=O)Cc3ccc(F)cc3)c2)c(-c2ccc(F)cc2)[nH]1 — 3-fold lower, 9 nM
- CSc1nc(-c2ccc(F)cc2)c(-c2ccnc(NC(=O)c3ccc(C)c(F)c3)c2)[nH]1 — 1.9-fold lower, 14 nM
- CSc1nc(-c2ccc(F)cc2)c(-c2ccnc(NC(C)=O)c2)n1C1CCOCC1 — 29-fold higher, 780 nM
- CSc1nc(-c2ccc(F)cc2)c(-c2ccnc(NC(C)=O)c2)n1[C@H]1CC[C@H](O)CC1 — 12-fold higher, 320 nM
- CSc1nc(-c2ccc(F)cc2)c(-c2ccnc(NC(=O)COc3ccc(Cl)cc3)c2)[nH]1 — 3.7-fold higher, 100 nM
- CSc1nc(-c2ccc(F)cc2)c(-c2ccnc(NC(=O)COc3ccc(Cl)cc3Cl)c2)[nH]1 — 5.9-fold higher, 160 nM
- CSc1nc(-c2ccc(F)cc2)c(-c2ccnc(NC(C)=O)c2)n1C1CCCCC1 — 29-fold higher, 790 nM
- CSc1nc(-c2ccc(F)cc2)c(-c2ccnc(NC(C)=O)c2)n1C1CC1 — 15-fold higher, 400 nM
- CSc1nc(-c2ccc(F)cc2)c(-c2ccnc(NC(=O)COc3cccc(Cl)c3Cl)c2)[nH]1 — 5.9-fold higher, 160 nM
- CSc1nc(-c2ccc(F)cc2)c(-c2ccnc(NC(=O)c3cc4ccccc4o3)c2)[nH]1 — 2-fold higher, 53 nM
- CCC(CC)n1c(SC)nc(-c2ccc(F)cc2)c1-c1ccnc(NC(C)=O)c1 — 21-fold higher, 570 nM
- CSc1nc(-c2ccc(F)cc2)c(-c2ccnc(NC(C)=O)c2)n1CCCl — 5.6-fold higher, 150 nM
- CSc1nc(-c2ccc(F)cc2)c(-c2ccnc(NC(=O)C3=Cc4ccccc4OC3)c2)[nH]1 — the same, 27 nM
- CSc1nc(-c2ccc(F)cc2)c(-c2ccnc(NC(=O)C(C)c3ccc(CC(C)C)cc3)c2)[nH]1 (centres undefined) — 3.3-fold higher, 90 nM
- CSc1nc(-c2ccc(F)cc2)c(-c2ccnc(NC(C)=O)c2)n1CCCCl — 1.6-fold lower, 17 nM
- CSc1nc(-c2ccc(F)cc2)c(-c2ccnc(NC(C)=O)c2)n1CCCCCl — 6.7-fold higher, 180 nM
- CSc1nc(-c2ccc(F)cc2)c(-c2ccnc(NC(=O)CCc3ccc(C(C)(C)C)cc3)c2)[nH]1 — 4.8-fold higher, 130 nM
- CSc1nc(-c2ccc(F)cc2)c(-c2ccnc(NC(=O)c3ccco3)c2)[nH]1 — 2.1-fold lower, 13 nM
- CSc1nc(-c2ccc(F)cc2)c(-c2ccnc(NC(C)=O)c2)n1CCCBr — the same, 27 nM
- CSc1nc(-c2ccc(F)cc2)c(-c2ccnc(NC(C)=O)c2)n1CCCF — 6.7-fold higher, 180 nM
- CSc1nc(-c2ccc(F)cc2)c(-c2ccnc(NC(=O)c3ccc(-c4ccccc4)cc3)c2)[nH]1 — 3.7-fold higher, 100 nM
- CSc1nc(-c2ccc(F)cc2)c(-c2ccnc(NC(C)=O)c2)n1CCCI — within 1.5-fold, 19 nM
- C=CC(=O)Nc1cc(-c2c(-c3ccc(F)cc3)nc(SC)n2CCOC)ccn1 — 6.3-fold higher, 170 nM
- COCCn1c(SC)nc(-c2ccc(F)cc2)c1-c1ccnc(NC(=O)CC(F)(F)F)c1 — 18-fold higher, 490 nM
- COCCn1c(SC)nc(-c2ccc(F)cc2)c1-c1ccnc(NC(=O)c2cccs2)c1 — 8.9-fold higher, 240 nM
- CCn1c(SC)nc(-c2ccc(F)cc2)c1-c1ccnc(NC(=O)/C=C/c2c(Cl)cccc2Cl)c1 — 3.7-fold higher, 100 nM
- CSc1nc(-c2ccc(F)cc2)c(-c2ccnc(NC(C)=O)c2)n1CCCCO — 5.2-fold higher, 140 nM
- CCn1c(SC)nc(-c2ccc(F)cc2)c1-c1ccnc(NC(=O)/C=C/c2ccc(OC)cc2OC)c1 — within 1.5-fold, 38 nM
- CCn1c(SC)nc(-c2ccc(F)cc2)c1-c1ccnc(NC(=O)/C=C/c2ccc(OC)cc2)c1 — 2.8-fold higher, 75 nM
- CSc1nc(-c2ccc(F)cc2)c(-c2ccnc(NC(C)=O)c2)n1CC(O)CO (centres undefined) — 55-fold higher, 1490 nM
- CSc1nc(-c2ccc(F)cc2)c(-c2ccnc(NC(C)=O)c2)n1C(CO)CO — 230-fold higher, 6280 nM
- CCn1c(SC)nc(-c2ccc(F)cc2)c1-c1ccnc(NC(=O)Cc2ccc(F)cc2)c1 — 3.4-fold higher, 93 nM
- CSc1nc(-c2ccc(F)cc2)c(-c2ccnc(NC(=O)/C=C/c3c(Cl)cccc3Cl)c2)n1C — 6.3-fold higher, 170 nM
- CSc1nc(-c2ccc(F)cc2)c(-c2ccnc(NC(C)=O)c2)n1C(CCO)CCO — 230-fold higher, 6140 nM
- CSc1nc(-c2ccc(F)cc2)c(-c2ccnc(NC(C)=O)c2)n1CCC(=O)O — 84-fold higher, 2260 nM
- COc1ccc(/C=C/C(=O)Nc2cc(-c3c(-c4ccc(F)cc4)nc(SC)n3C)ccn2)c(OC)c1 — 10-fold higher, 280 nM
- COc1ccc(/C=C/C(=O)Nc2cc(-c3c(-c4ccc(F)cc4)nc(SC)n3C)ccn2)cc1 — 1.5-fold lower, 18 nM
- CCOC(=O)CCn1c(SC)nc(-c2ccc(F)cc2)c1-c1ccnc(NC(C)=O)c1 — 16-fold higher, 440 nM
- COC(=O)CCn1c(SC)nc(-c2ccc(F)cc2)c1-c1ccnc(NC(C)=O)c1 — 12-fold higher, 330 nM
- CSc1nc(-c2ccc(F)cc2)c(-c2ccnc(NC(=O)Cc3ccc(F)cc3)c2)n1C — 4.8-fold higher, 130 nM
- CSc1nc(-c2ccc(F)cc2)c(-c2ccnc(NC(=O)Cc3ccc(Cl)cc3)c2)n1C — within 1.5-fold, 22 nM
- CSc1nc(-c2ccc(F)cc2)c(-c2ccnc(NC(C)=O)c2)n1CCCC(=O)O — 60-fold higher, 1620 nM
- CSc1nc(-c2ccc(F)cc2)c(-c2ccnc(NC(C)=O)c2)n1CCCCC(=O)O — 29-fold higher, 770 nM
- CSc1nc(-c2ccc(F)cc2)c(-c2ccnc(NC(=O)C3CC3)c2)n1C — 6.3-fold higher, 170 nM
- CSc1nc(-c2ccc(F)cc2)c(-c2ccnc(NC(=O)C3CCCC3)c2)n1C — 5.6-fold higher, 150 nM
- CSc1nc(-c2ccc(F)cc2)c(-c2ccnc(NC(C)=O)c2)n1CCC(=O)N1CCCC1 — 42-fold higher, 1140 nM
- CCN(CC)C(=O)CCn1c(SC)nc(-c2ccc(F)cc2)c1-c1ccnc(NC(C)=O)c1 — 44-fold higher, 1200 nM
- CSc1nc(-c2ccc(F)cc2)c(-c2ccnc(NC(=O)/C=C/c3ccc(C)cc3)c2)[nH]1 — within 1.5-fold, 32 nM
- COc1ccc(/C=C/C(=O)Nc2cc(-c3[nH]c(SC)nc3-c3ccc(F)cc3)ccn2)cc1 — 2.7-fold lower, 10 nM
- CSc1nc(-c2ccc(F)cc2)c(-c2ccnc(NC(C)=O)c2)n1CCO — 4.1-fold higher, 110 nM
- CSc1nc(-c2ccc(F)cc2)c(-c2ccnc(NC(C)=O)c2)n1CCCO — 5.6-fold higher, 150 nM
- COCCn1c(SC)nc(-c2ccc(F)cc2)c1-c1ccnc(NC(C)=O)c1 — 4.1-fold higher, 110 nM
